Assay results as given in the NIST ThermoML archive (doi:10.1021/je030163d).

Assay: xn = mol fraction of the nth substance listed
Details: 101.3 kPa, Liquid; for viscosity: Capillary tube (Ostwald / Ubbelohde) method; for mass density: Pycnometric method

CC(=O)c1ccccc1 [acetophenone] + CN(C)C=O
Details	mass density, 298.15 K [kg/m3]	mass density, 303.15 K [kg/m3]	mass density, 308.15 K [kg/m3]	mass density, 313.15 K [kg/m3]	viscosity, 298.15 K [mPa·s]	viscosity, 303.15 K [mPa·s]	viscosity, 308.15 K [mPa·s]	viscosity, 313.15 K [mPa·s]
x2 = 0	1024.1	1019.9	1015.7	1011.2	1.68	1.54	1.41	1.31
x2 = 0.1123	1018	1013.9	1009.7	1005.2	1.584	1.453	1.33	1.238
x2 = 0.1641	1015.6	1011.4	1007.2	1002.7	1.544	1.418	1.299	1.206
x2 = 0.308	1008.8	1004.6	1000.4	995.9	1.43	1.314	1.205	1.123
x2 = 0.4328	1001	996.8	992.5	988	1.328	1.221	1.122	1.047
x2 = 0.5286	994.2	989.9	985.6	981.1	1.246	1.148	1.056	0.987
x2 = 0.6256	985.8	981.4	977.1	972.5	1.156	1.069	0.984	0.922
x2 = 0.7165	977.2	972.8	968.4	963.8	1.072	0.995	0.918	0.862
x2 = 0.7943	969	964.5	960	955.3	0.999	0.93	0.861	0.81
x2 = 0.9378	952.5	947.9	943.3	938.5	0.863	0.809	0.755	0.714

OCc1ccccc1 [benzenemethanol] + CN(C)C=O
Details	mass density, 298.15 K [kg/m3]	mass density, 303.15 K [kg/m3]	mass density, 308.15 K [kg/m3]	mass density, 313.15 K [kg/m3]	viscosity, 298.15 K [mPa·s]	viscosity, 303.15 K [mPa·s]	viscosity, 308.15 K [mPa·s]	viscosity, 313.15 K [mPa·s]
x2 = 0	1041.3	1037.5	1033.7	1029.4	5.16	4.67	4.004	3.52
x2 = 0.1088	1036.1	1032.3	1028.5	1024.3	4.473	4.06	3.51	3.106
x2 = 0.1712	1032.5	1028.7	1024.9	1020.6	4.011	3.648	3.17	2.817
x2 = 0.3055	1022.7	1018.8	1014.9	1010.6	3.14	2.87	2.517	2.26
x2 = 0.4003	1014.8	1010.8	1006.8	1002.4	2.59	2.378	2.1	1.9
x2 = 0.5393	1001.3	997.2	993.1	988.7	2.02	1.86	1.67	1.52
x2 = 0.5865	996.1	992	987.9	983.4	1.85	1.71	1.541	1.411
x2 = 0.717	980.7	976.4	972.1	967.6	1.44	1.335	1.218	1.127
x2 = 0.7962	970.3	965.9	961.5	956.9	1.23	1.146	1.054	0.982
x2 = 0.8972	957.6	953.1	948.7	944	1.001	0.938	0.872	0.819
